Assays:
[1] = target: PI3K (p120γ) (h) (Homo sapiens (Human), UniProt P48736); experiment: PI3K (p120γ) (h) non-radioactive HTRF kinase assay; format: biochemical
Protocol: (§1) PI3K (p120γ) (h) is incubated in assay buffer containing 10 μM phosphatidylinositol-4, 5-bisphosphate and MgATP (concentration as required). The reaction is initiated by the addition of the MgATP mix. After incubation for 30 minutes at room temperature, the reaction is stopped by the addition of stop solution containing EDTA and biotinylated phosphatidylinositol-3,4,5-trisphosphate. Finally, detection buffer is added, which contains europium-labelled anti-GST monoclonal antibody, GST-tagged GRP1 PH domain and streptavidin-allophycocyanin. The plate is then read in timeresolved fluorescence mode and the homogenous time-resolved fluorescence (HTRF) signal is determined according to the formula HTRF=10000×(Em665 nm/Em620 nm).
(§2) The kinase assays described herein were performed at Millipore UK Ltd, Dundee Technology Park, Dundee DD2 1SW, UK.

[2] = system: PI3K-β (786-O); experiment: p-AKT HTRF assay, PI3K-β in 786-O cells; format: cell-based; conditions: Homo sapiens, 786-0
Protocol: (§3) Cells were incubated at 37° C. in a 5% CO2 atmosphere overnight. […] Medium was then aspirated and 50 μL/well of lysis buffer was added. Plates were shaked for 45 minutes at room temperature and then 16 ul/well of lysate was transferred to 384-well plate. 4 ul/well of premixed antibody was added to the wells. The plate was centrifuged at 1000 rpm at RT for 1 minute and then incubated for 4 hours at 22° C., and Phospho-AKT (ser473) Kit was used for detection.

[3] = target: PI3K (p110β/p85α) (h) (Homo sapiens (Human), UniProt P42338); experiment: PI3K (p110β/p85α) (h) non-radioactive HTRF kinase assay; format: biochemical
Chain of PI3K (p110β/p85α) (h) (P42338 whole entry): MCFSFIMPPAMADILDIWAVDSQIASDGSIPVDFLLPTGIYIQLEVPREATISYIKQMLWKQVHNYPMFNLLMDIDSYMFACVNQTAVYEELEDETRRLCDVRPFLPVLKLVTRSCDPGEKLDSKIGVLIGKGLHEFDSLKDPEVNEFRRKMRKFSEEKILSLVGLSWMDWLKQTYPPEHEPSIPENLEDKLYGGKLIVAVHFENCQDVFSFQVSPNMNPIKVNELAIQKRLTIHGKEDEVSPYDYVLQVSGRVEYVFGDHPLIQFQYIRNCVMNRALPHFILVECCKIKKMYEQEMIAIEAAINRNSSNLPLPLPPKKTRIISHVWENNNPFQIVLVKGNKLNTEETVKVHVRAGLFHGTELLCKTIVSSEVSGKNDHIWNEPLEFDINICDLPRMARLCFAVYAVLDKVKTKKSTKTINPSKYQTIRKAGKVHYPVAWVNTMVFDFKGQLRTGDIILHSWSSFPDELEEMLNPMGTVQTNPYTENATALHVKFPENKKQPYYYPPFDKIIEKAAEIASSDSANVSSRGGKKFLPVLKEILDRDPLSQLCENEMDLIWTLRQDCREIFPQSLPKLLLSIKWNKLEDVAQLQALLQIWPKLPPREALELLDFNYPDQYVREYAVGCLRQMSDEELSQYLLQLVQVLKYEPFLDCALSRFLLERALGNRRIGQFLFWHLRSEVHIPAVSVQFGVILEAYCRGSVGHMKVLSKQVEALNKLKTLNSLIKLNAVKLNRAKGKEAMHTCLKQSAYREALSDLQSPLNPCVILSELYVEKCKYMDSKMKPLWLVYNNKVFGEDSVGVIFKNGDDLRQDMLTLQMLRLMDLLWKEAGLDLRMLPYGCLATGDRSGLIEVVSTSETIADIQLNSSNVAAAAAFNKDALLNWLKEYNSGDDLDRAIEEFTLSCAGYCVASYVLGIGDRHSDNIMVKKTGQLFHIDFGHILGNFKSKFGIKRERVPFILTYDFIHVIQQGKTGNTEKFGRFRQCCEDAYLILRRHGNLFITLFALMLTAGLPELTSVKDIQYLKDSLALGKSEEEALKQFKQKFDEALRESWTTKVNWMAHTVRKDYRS
Chain of PI3K (p110β/p85α) (h) (P27986 whole entry partner): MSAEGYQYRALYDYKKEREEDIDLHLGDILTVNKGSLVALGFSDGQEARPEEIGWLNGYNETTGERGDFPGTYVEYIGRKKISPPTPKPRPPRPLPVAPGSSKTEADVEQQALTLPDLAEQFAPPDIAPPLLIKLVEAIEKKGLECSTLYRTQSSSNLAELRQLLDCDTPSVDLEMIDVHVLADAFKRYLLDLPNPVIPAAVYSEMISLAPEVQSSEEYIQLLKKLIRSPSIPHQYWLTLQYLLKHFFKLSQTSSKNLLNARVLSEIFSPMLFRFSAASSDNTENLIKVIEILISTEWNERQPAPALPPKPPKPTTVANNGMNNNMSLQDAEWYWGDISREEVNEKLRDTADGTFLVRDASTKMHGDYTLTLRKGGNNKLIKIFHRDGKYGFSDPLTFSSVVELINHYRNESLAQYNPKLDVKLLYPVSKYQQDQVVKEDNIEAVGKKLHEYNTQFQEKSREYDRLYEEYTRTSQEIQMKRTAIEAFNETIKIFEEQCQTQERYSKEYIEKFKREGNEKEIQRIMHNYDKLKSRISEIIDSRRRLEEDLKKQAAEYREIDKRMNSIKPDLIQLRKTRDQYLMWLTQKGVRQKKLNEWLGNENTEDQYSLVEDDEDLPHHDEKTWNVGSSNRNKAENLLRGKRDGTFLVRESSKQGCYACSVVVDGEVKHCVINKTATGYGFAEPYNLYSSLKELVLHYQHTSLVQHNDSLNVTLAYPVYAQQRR
Protocol: as §1, with “(p110β/p85α)” for “(p120γ)”, “phosphatidylinositol-4,5-bisphosphate” for “phosphatidylinositol-4, 5-bisphosphate”
as §2

[4] = system: SU-DHL-10; experiment: Cell proliferation assay (CTG), SU-DHL-10; format: cell-based; conditions: Homo sapiens, SU-DHL10, 72 h
Protocol: • 1. Harvest cells during the logarithmic growth period and count cell number using Count-star. • 2. Adjust cell concentrations to […] with respective culture medium. • 3. Add 90 μL cell suspensions to 96-well plates with the final cell density of 1×10^4 cells/well. (cell concentration will be adjusted according to the data base or density optimization assay.) • 4. The next day, prepare 10× solution (Top working concentration: 10 μM of test article in media with 3.16-fold serial dilutions to achieve 9 dose levels). • 5. Dispense 10 μL drug solution of both test article and reference control in each well (duplicate for each drug concentration) of the plate.

[5] = target: PI3K (p110δ/p85α) (h) (Homo sapiens (Human), UniProt O00329); experiment: PI3K (p110δ/p85α) (h) non-radioactive HTRF kinase assay; format: biochemical
Chain of PI3K (p110δ/p85α) (h) (O00329 whole entry): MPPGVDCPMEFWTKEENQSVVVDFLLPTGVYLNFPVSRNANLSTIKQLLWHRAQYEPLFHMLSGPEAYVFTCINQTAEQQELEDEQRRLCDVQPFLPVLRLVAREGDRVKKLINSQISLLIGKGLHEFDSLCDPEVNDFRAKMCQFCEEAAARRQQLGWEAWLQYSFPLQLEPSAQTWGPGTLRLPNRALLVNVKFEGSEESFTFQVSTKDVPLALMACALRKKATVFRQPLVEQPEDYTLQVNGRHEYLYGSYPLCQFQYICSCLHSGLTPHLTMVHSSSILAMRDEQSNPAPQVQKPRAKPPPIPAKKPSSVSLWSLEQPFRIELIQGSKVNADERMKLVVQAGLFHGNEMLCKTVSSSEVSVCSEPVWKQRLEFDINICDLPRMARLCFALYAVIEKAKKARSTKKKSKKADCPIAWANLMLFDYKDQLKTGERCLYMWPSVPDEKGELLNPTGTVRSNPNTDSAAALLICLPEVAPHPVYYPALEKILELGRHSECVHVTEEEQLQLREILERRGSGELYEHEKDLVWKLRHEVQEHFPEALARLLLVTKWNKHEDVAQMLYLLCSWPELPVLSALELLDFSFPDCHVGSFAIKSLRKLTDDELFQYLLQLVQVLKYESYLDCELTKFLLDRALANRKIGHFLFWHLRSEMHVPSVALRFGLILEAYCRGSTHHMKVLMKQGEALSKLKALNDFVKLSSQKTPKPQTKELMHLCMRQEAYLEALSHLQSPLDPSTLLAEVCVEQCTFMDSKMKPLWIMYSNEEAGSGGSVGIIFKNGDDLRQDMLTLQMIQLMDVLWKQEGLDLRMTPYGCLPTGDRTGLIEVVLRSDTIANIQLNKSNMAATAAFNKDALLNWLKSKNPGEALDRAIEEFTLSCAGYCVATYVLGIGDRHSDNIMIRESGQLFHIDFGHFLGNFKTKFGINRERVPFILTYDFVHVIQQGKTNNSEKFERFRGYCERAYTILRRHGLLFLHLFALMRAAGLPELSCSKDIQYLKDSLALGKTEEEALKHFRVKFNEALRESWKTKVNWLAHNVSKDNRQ
Chain of PI3K (p110δ/p85α) (h) (P27986 whole entry partner): as the sequence (P27986 whole entry partner) above
Protocol: as §1, with “(p110δ/p85α)” for “(p120γ)”
as §2

[6] = target: PI3K (p110α/p85α) (h) (Homo sapiens (Human), UniProt P42336); experiment: PI3K (p110α/p85α) (h) non-radioactive HTRF kinase assay; format: biochemical
Chain of PI3K (p110α/p85α) (h) (P42336 whole entry): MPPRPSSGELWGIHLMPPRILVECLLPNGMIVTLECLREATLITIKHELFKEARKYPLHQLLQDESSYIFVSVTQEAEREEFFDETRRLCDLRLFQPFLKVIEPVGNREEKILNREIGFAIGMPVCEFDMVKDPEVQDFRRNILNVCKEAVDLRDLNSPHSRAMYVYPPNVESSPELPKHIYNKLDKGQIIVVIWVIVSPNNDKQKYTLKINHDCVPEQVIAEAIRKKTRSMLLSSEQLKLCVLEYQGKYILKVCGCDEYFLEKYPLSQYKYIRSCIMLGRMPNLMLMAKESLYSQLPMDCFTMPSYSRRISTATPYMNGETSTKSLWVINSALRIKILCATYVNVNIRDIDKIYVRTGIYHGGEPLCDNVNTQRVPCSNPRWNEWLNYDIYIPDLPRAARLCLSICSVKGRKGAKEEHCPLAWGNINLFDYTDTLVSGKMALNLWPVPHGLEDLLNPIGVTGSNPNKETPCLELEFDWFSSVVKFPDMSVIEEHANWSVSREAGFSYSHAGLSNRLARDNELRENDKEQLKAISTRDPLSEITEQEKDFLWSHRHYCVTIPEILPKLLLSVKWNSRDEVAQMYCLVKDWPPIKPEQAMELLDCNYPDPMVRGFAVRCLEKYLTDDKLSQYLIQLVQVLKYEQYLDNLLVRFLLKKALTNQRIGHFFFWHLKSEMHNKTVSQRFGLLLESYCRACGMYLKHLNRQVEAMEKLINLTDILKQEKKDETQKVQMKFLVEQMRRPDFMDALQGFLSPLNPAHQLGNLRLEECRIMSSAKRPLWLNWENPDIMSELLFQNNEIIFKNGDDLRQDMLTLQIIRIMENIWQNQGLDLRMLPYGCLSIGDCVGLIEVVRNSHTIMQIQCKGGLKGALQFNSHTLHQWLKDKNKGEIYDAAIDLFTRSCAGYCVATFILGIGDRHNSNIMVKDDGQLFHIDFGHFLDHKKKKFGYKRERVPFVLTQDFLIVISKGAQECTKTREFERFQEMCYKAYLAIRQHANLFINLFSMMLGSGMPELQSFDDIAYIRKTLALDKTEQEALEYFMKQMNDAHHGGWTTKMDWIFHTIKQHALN
Chain of PI3K (p110α/p85α) (h) (P27986 whole entry partner): as the sequence (P27986 whole entry partner) above
Protocol: as §1, with “(p110α/p85α)” for “(p120γ)”, “phosphatidylinositol 4,5-bisphosphate” for “phosphatidylinositol-4, 5-bisphosphate”, “ATP solution.” for “MgATP mix.”, “streptavidin allophycocyanin.” for “streptavidin-allophycocyanin.”
as §2

[7] = system: PI3K-γ (RAW264.7); experiment: p-AKT HTRF assay, PI3K-γ in RAW 264.7 cells stimulated with C5a; format: cell-based, murine; conditions: Mus musculus; RAW264.7 cells, C5a stimulation
Protocol: as §3

Chain of PI3K (p120γ) (h) (P48736 whole entry, the tested form may be a part): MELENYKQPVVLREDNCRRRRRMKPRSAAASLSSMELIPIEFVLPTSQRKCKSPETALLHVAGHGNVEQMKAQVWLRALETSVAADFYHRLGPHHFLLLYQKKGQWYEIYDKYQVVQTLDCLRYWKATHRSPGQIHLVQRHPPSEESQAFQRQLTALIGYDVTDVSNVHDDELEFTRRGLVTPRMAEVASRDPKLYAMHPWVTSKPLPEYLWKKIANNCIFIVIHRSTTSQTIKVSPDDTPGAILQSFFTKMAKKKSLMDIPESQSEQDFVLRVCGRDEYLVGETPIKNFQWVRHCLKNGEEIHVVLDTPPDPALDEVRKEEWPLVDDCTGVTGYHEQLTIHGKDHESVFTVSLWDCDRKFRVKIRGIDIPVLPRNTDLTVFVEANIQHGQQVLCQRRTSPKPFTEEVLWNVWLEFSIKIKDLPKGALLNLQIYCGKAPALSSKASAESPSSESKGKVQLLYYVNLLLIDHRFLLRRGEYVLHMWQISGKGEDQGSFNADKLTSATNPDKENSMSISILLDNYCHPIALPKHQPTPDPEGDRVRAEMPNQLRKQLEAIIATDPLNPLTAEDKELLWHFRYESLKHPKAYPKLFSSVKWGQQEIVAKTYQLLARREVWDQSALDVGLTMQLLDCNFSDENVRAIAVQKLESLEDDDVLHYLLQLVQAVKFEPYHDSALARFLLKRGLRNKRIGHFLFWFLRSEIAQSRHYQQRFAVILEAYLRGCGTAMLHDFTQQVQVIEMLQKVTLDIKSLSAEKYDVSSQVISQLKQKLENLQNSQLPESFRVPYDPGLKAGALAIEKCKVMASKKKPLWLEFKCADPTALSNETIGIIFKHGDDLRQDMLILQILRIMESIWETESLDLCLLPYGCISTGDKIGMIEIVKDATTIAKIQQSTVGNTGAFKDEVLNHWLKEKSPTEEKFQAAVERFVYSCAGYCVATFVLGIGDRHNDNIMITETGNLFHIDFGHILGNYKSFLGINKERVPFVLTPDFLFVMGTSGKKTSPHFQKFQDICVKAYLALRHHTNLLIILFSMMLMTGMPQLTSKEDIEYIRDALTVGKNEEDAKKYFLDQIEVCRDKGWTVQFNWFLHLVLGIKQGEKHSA

- IC50 [1]: 192 nM
- IC50 [2]: 70.3 nM
- IC50 [3]: 160 nM
- IC50 [4]: 300 nM
- IC50 [5]: 4 nM
- IC50 [6]: 770 nM
- IC50 [7]: 128 nM
SMILES: Cc1noc(-c2c(N)ncnc2N[C@@H](C)c2nc3cccc(C#CCO)c3c(=O)n2-c2ccccc2)n1 [Example 34, (S)-2-(1-((6-amino-5-(3-methyl-1,2,4-oxadiazol-5-yl)pyrimidin-4-yl)amino)ethyl)-5-(3-hydroxyprop-1-yn-1-yl)-3-phenylquinazolin-4(3H)-one]

— patent publication US10751339B2, “Substituted aminopyrimidine compounds and methods of use” (SUNSHINE LAKE PHARMA CO., LTD., priority 2018, dated 2020)
